What all share (test): cells
What all share (parameters): CellTiter-Glo 2.0 luminescence proliferation/viability assay, single agents, human tumour cell line panel
(ATP-based viability assays read luminescence as a measure of living cells.)

The test system of test [1] is NCI-H1975. Particulars: Homo sapiens, NCI-H1975, 96 h; single agent; read-out: IC50 SMACm. Here is the method: (§1) The effect of BETi, SMACm alone or in combination cell viability was determined using a 96-h CellTiter-Glo2.0 proliferation assay. Cells were seeded in assay plates and placed at 37°C with 5% CO2 for twenty-four hours before treatment. Compounds were added in triplicate in gradients of increasing concentrations, in case of SMACm ranging between 4.5 nM and 10 μM and in case of BETi between 1.4 nM and 3 μM. DMSO served as control. Cell viability was measured by luminescence analysis using luminescence read on Envision plate readers (PerkinElmer). An additional set of colorectal cancer cell lines was assayed with technical duplicates and experimental triplicates. Cell viability was measured by luminescence analysis using luminescence read on Tecan Plate reader. The effects of drug combinations were analyzed using the Bliss Independence Model.[34] Synergy score was calculated by the average of 3 highest and 3 lowest BLISS Gaps between predicted and measured POC (Percentage of Control) values. To investigate the synergistic interaction between BI 894999 (hereafter, BETi) and BI 891065 (hereafter, SMACm), we evaluated the in vitro anti-tumor effect of the single agents or the combination in a large panel of 151 cancer cell lines of different tissue origin: CRC, gastric cancer, non-small cell lung cancer (NSCLC), and pancreatic carcinoma (Figures 1C–1F). As a mono-agent, SMACm was able to inhibit cell proliferation only in a limited number of tested cell lines (4%, Table S2). Most of the cell lines responded to inhibition by BETi, with sensitivity ranging from 10 to 100 nM (Figure 1C). Bliss Gap analysis, performed to analyze the effect of the BETi+SMACm combination on tumor cell growth (Figures 1D–1F), unveiled potent synergistic activity across the cell models tested (Figure 1E), independent of tumor type (Figure 1F).  Figure 1 The combinatorial effect of BI 894999 and BI 891065 across a panel of human tumor cell lines (A) Selectivity and potency profiles of BI 891065. Top left, structure of BI 891065. Top right, IC50 values for BI 891065 inhibition of cIAP1, cIAP2, and XIAP. Bottom, physicochemical properties of […]. (B) WES (Simple Western System) analysis of cIAP1, cIAP2, and XIAP levels upon treatment of HT-29 cells with indicated concentrations of BI 891065 for 6 h (C) IC50 values determined in cell proliferation assays (n = 151) individually for BETi BI 894999 and SMACm BI 891065. Each point represents a cell line tested. (D) Example of proliferation assay for synergy analysis in LoVo cell line; shown is combination plate map matrix and the cell growth inhibition (CGI) at the indicated concentrations; CGI values < 100%: tumor cell growth, CGI 100%: tumor cell stasis, and CGI > 100%: tumor cell killing. (E) Synergy scores across the tested panel of cell lines obtained using Bliss synergy analysis. (F) Violin plots showing the synergy scores for BETi and SMACm combination across indications. N is the number of cell lines tested in each indication group.

In test [2] the test system is HUTU-80. Particulars: Homo sapiens, HuTu80, 96 h; single agent; read-out: IC50 SMACm. The procedure:
as §1

Test [3] relates to C106. As to conditions: 96 h; single agent; read-out: IC50 SMACm. The procedure: as §1
The subject of test [4] is HRA16. Particulars: 96 h; single agent; read-out: IC50 SMACm. Here is the method: as §1
Test [5] concerns SNU1040. Particulars: 96 h; single agent; read-out: IC50 SMACm. The procedure: as §1
The subject of test [6] is LK-2. As to conditions: Homo sapiens, LK-2, 96 h; single agent; read-out: IC50 SMACm. The procedure: as §1
Test [7] relates to C99. Particulars: 96 h; single agent; read-out: IC50 SMACm. Here is the method:
as §1

Test [8] concerns LU-99. Particulars: Homo sapiens, Lu-99, 96 h; single agent; read-out: IC50 SMACm. The procedure: as §1
The test system of test [9] is KM12SM. Particulars: 96 h; single agent; read-out: IC50 SMACm. Here is the method: as §1
The test system of test [10] is NCI-H23. Particulars: Homo sapiens, NCI-H23, 96 h; single agent; read-out: IC50 SMACm. The procedure:
as §1

Test [11] has as its system HARA. As to conditions: 96 h; single agent; read-out: IC50 SMACm. Here is the method: as §1
For test [12], the system named is NCI-H1838. Particulars: Homo sapiens, NCI-H1838, 96 h; single agent; read-out: IC50 SMACm. The procedure:
as §1

Test [13] relates to C75. As to conditions: 96 h; single agent; read-out: IC50 SMACm. Here is the method: as §1
Test [14] has as its system LIM2551. As to conditions: 96 h; single agent; read-out: IC50 SMACm. Here is the method: as §1
The test system of test [15] is COLO678. As to conditions: Homo sapiens, COLO-678, 96 h; single agent; read-out: IC50 SMACm. Here is the method:
as §1

The test system of test [16] is CACO2. Particulars: Homo sapiens, Caco-2, 96 h; single agent; read-out: IC50 SMACm. Here is the method:
as §1

Regarding `CN[C@@H](C)C(=O)Nc1ccc(-c2c(-c3cccnc3OC)nc3cc(C)ccn23)c(C#Cc2ccc3c(C)nccc3c2)n1` [SMACm, BI 891065], the IC50 came out at 4.63 µM in test [1]; 3.31 µM in test [2]; 1600 nM in test [3]; 3.99 µM in test [4]; 3.59 µM in test [5]; 4.15 µM in [6]. The IC50 turned out to be 3.8 µM in [7]; 7.37 µM in [8]; 4.31 µM in test [9]; 3.42 µM in test [10]; 3.97 µM in test [11]; 4.25 µM in test [12]. Further, the IC50 came out at 2800 nM in [13], 2250 nM in test [14], 2590 nM in test [15] and 2970 nM in test [16].

What is called IC50 is the concentration needed to halve the response being measured.
